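Step 1: Grow cells in 96-well plates. Step 2: Expose to compound for 48 hours at 5 concentrations. Step 3: Interpolate endpoints linearly; if unreached, use highest concentration. GI50 = concentration required for 50% inhibition of growth.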 Activity calls are given as the source filed them. No stated cut-off is given here; in the data, active = GI50 up to about 1.1 µM and inactive = higher.
Legend:
Experiment in all cases: inhibition of tumour cell growth, NCI panel, 48 h
[1] = system: MDA-N
[2] = system: DU-145
[3] = system: UACC-257
[4] = system: NCI/ADR-RES
[5] = system: SK-MEL-2
[6] = system: SW-620
[7] = system: Malme-3M
[8] = system: HT-29
[9] = system: M14
[10] = system: RXF 393
[11] = system: NCI-H522
[12] = system: SNB-75
[13] = system: SK-MEL-28
[14] = system: OVCAR-5
[15] = system: HCC 2998
[16] = system: K562
[17] = system: Hs-578T
[18] = system: CCRF-CEM
[19] = system: NCI-H460
[20] = system: ACHN
[21] = system: SF-295
[22] = system: NCI-H23
[23] = system: UACC-62
[24] = system: CAKI-1
[25] = system: SK-OV-3
[26] = system: 786-0
[27] = system: U-251
[28] = system: MDA-MB-231
[29] = system: BT-549
[30] = system: SN12C
[31] = system: MCF7
[32] = system: COLO 205
[33] = system: OVCAR-4
[34] = system: NCI-H226
[35] = system: KM12
[36] = system: SK-MEL-5
[37] = system: SNB-19
[38] = system: EKVX
[39] = system: SF-539
[40] = system: A498
[41] = system: HOP-92
[42] = system: MDA-MB-435
[43] = system: UO-31
[44] = system: IGROV-1
[45] = system: RPMI-8226
[46] = system: SR
[47] = system: PC-3
[48] = system: MOLT-4
[49] = system: T47D
[50] = system: HOP-62
[51] = system: HCT-15
[52] = system: OVCAR-8
[53] = system: TK-10
[54] = system: HCT-116
[55] = system: OVCAR-3
[56] = system: SF-268
[57] = system: A549
[58] = system: LOX IMVI

CC(=O)n1nc(-c2[nH]c(C)c(-c3nn(C(C)=O)c(=S)o3)c2C)oc1=S
GI50 [1]: > 100 µM (inactive)
GI50 [2]: > 100 µM (inactive)
GI50 [3]: > 100 µM (inactive)
GI50 [4]: > 100 µM (inactive)
GI50 [5]: > 62.4 µM (inactive)
GI50 [6]: > 100 µM (inactive)
GI50 [7]: 30.1 µM (inactive)
GI50 [8]: > 100 µM (inactive)
GI50 [9]: > 100 µM (inactive)
GI50 [10]: > 100 µM (inactive)
GI50 [11]: > 85.7 µM (inactive)
GI50 [12]: > 32.3 µM (inactive)
GI50 [13]: > 100 µM (inactive)
GI50 [14]: > 100 µM (inactive)
GI50 [15]: > 100 µM (inactive)
GI50 [16]: > 100 µM (inactive)
GI50 [17]: > 100 µM (inactive)
GI50 [18]: 12.9 µM (inactive)
GI50 [19]: > 100 µM (inactive)
GI50 [20]: > 100 µM (inactive)
GI50 [21]: > 100 µM (inactive)
GI50 [22]: > 100 µM (inactive)
GI50 [23]: > 100 µM (inactive)
GI50 [24]: > 100 µM (inactive)
GI50 [25]: > 100 µM (inactive)
GI50 [26]: 97.7 µM (inactive)
GI50 [27]: > 100 µM (inactive)
GI50 [28]: > 100 µM (inactive)
GI50 [29]: > 100 µM (inactive)
GI50 [30]: > 100 µM (inactive)
GI50 [31]: > 100 µM (inactive)
GI50 [32]: > 100 µM (inactive)
GI50 [33]: > 100 µM (inactive)
GI50 [34]: > 54 µM (inactive)
GI50 [35]: > 100 µM (inactive)
GI50 [36]: > 100 µM (inactive)
GI50 [37]: > 100 µM (inactive)
GI50 [38]: > 100 µM (inactive)
GI50 [39]: 81.7 µM (inactive)
GI50 [40]: > 100 µM (inactive)
GI50 [41]: > 100 µM (inactive)
GI50 [42]: > 100 µM (inactive)
GI50 [43]: > 100 µM (inactive)
GI50 [44]: > 100 µM (inactive)
GI50 [45]: > 56.6 µM (inactive)
GI50 [46]: 41 µM (inactive)
GI50 [47]: > 100 µM (inactive)
GI50 [48]: 6.89 µM (inactive)
GI50 [49]: > 100 µM (inactive)
GI50 [50]: > 100 µM (inactive)
GI50 [51]: > 100 µM
GI50 [52]: > 100 µM (inactive)
GI50 [53]: > 100 µM (inactive)
GI50 [54]: > 100 µM (inactive)
GI50 [55]: > 100 µM (inactive)
GI50 [56]: > 100 µM (inactive)
GI50 [57]: > 100 µM (inactive)
GI50 [58]: 82.8 µM (inactive)
